Test results from patent publication US8450308B2 (Vitae Pharmaceuticals, Inc., priority 2008, dated 2013).
Where two headings read alike, the source gives them in different places.

Target: T1, truncated human beta-secretase (residues 1-458, His6-tagged at the C-terminus) (Homo sapiens, UniProt P56817)
T1 construct: truncated human beta-secretase (residues 1-458, His6-tagged at the C-terminus); His6 (C); made in house; host or cells: insect cells D. melanogaster S2 (baculovirus expression system (so in the source))
Assay: BACE fluorescence quench assay
Type: biochemical
Protocol: The assay was performed at room temperature in 96-well white opaque Optiplates aque Optiplates (PerkinElmer, Waltham, Mass.) in a total volume of 200 μl of the incubation mixture containing 50 mM sodium acetate buffer, pH 4.5, 0.4 μM FRET substrate, 2.4 nM enzyme, 5% DMSO, and 0.05% Brij-35. The tested compounds were serially diluted in DMSO and pre-incubated with the substrate. The reaction was started by addition of enzyme, and the progress of the reaction was followed by measuring fluorescence with an excitation wavelength of 480 nm and an emission wavelength of 520 nm. Ten measurements were taken every 5-10 min, and the intensity of fluorescence was regressed against time in order to derive velocities of reaction in all 96 wells. […] IC50 values were calculated by fitting percent inhibition vs. inhibitor concentration into a four-parametric logistic model using XLFit software (IDBS, Guildford, UK).

[1] = in vitro enzyme activity, BACE fluorescence assay, pH 4.5, read-out: IC50

T1 sequence (P56817 22-458): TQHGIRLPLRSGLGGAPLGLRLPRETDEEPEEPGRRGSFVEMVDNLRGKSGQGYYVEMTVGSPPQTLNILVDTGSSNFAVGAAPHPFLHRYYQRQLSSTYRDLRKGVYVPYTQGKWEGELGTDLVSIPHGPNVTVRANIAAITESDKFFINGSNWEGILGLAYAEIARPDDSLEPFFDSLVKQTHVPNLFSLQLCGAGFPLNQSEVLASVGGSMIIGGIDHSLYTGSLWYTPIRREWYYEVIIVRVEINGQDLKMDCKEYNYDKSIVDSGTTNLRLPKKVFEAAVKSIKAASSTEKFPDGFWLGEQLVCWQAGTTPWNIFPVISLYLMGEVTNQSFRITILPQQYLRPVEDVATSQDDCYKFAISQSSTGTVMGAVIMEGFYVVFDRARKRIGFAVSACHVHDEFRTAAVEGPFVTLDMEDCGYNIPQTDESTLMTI

| SMILES | IC50 [1] [nM] | IC50 [nM] |
| --- | --- | --- |
| CNC(=O)c1cccc(-c2ccc3c(c2)C2(CC(c4ccccc4)O3)N=C(N)N(C)C2=O)c1 (centres unmarked) [Compound 50, 3-(2′-amino-1′-methyl-5′-oxo-2-phenyl-1′,5′-dihydrospiro[chroman-4,4′-imidazole]-6-yl)-N-methylbenzamide] |  | 5000 to 10000 |
| CCOc1cccc(-c2ccc3c(c2)C2(CC4(CCCOC4)O3)N=C(N)N(C)O2)c1 (centres unmarked) [Compound 124] | 5000 to 10000 |  |
| CN1C(=O)[C@@]2(C[C@@]3(CCCOC3)Oc3ccc(-c4ccco4)cc32)N=C1N [Compound 448] | 10000 to 50000 |  |
| CN1C(=O)C2(CC(c3ccccc3)Oc3ccc(-c4cccc(C(=O)N5CCCC5)c4)cc32)N=C1N (centres unmarked) [Compound 61, 2′-amino-1′-methyl-2-phenyl-6-(3-(pyrrolidine-1-carbonyl)phenyl)spiro[chroman-4,4′-imidazol]-5′(1′H)-one] |  | 10000 to 50000 |
| C=Cc1cccc(-c2ccc3c(c2)C2(CC(c4ccccc4)O3)N=C(N)N(C)C2=O)c1 (centres unmarked) [Compound 22, 2′-amino-1′-methyl-2-phenyl-6-(3-vinylphenyl)spiro[chroman-4,4′-imidazol]-5′(1′H)-one] |  | 1000 to 5000 |
| CN1OC2(CC3(CCCCC3)Oc3ccc(-c4cccc(C#N)c4)cc32)NC1=N (centres unmarked) [Compound 118, 3-(3″-Imino-2″-methylspiro[spiro(chroman-2,1″-cyclohexane)-4,5′-[1,2,4]oxadiazolidine]-6-yl)benzonitrile] | 1000 to 5000 |  |
| CN1C(=O)C2(CC(c3ccccc3)Oc3ccc(-c4ccncc4)cc32)N=C1N (centres unmarked) [Compound 58, 2′-amino-1′-methyl-2-phenyl-6-(pyridin-4-yl)spiro[chroman-4,4′-imidazol]-5′(1′H)-one] |  | 10000 to 50000 |
| CN1C(=O)C2(CC3(CCCOC3)Oc3ccc(-c4cccc(-n5ccnc5)n4)cc32)N=C1N (centres unmarked) [Compound 439] | 5000 to 10000 |  |
| CCCN1C(=O)C2(CC(c3ccccc3)Oc3ccc(Br)cc32)N=C1N (centres unmarked) [Compound 57, 2′-amino-6-bromo-2-phenyl-1′-propylspiro[chroman-4,4′-imidazol]-5′(1′H)-one] | 10000 to 50000 |  |
| CN1C(=O)C2(CC(c3ccccc3)Oc3ccc(-c4cccc(S(=O)(=O)N(C)C)c4)cc32)N=C1N (centres unmarked) [Compound 45, 3-(2′-amino-1′-methyl-5′-oxo-2-phenyl-1′,5′-dihydrospiro[chroman-4,4′-imidazole]-6-yl)-N,N-dimethylbenzenesulfonamide] |  | 5000 to 10000 |
| CN1C(=O)[C@@]2(C[C@]3(CCCOC3)Oc3ccc(-c4cccc(-n5cccc5)n4)cc32)N=C1N [Compound 424] | 1000 to 5000 |  |
| CN1C(=O)C2(CC(c3ccccc3)Oc3ccc(-c4cccc(NS(C)(=O)=O)c4)cc32)N=C1N (centres unmarked) [Compound 52, N-(3-(2′-amino-1′-methyl-5′-oxo-2-phenyl-1′,5′-dihydrospiro[chroman-4,4′-imidazole]-6-yl)phenyl)methanesulfonamide] |  | 5000 to 10000 |
| Cc1ccc2c(c1)C1(CC(c3ccccc3)O2)N=C(N)N(C)C1=O (centres unmarked) [Compound 64, 2′-amino-1′,6-dimethyl-2-phenylspiro[chroman-4,4′-imidizol]-5′(1′H)-one] | 10000 to 50000 |  |
| COc1cccc(C2CC3(N=C(N)N(C)C3=O)c3cc(-c4cccc(C#N)c4)ccc3O2)c1 (centres unmarked) [Compound 23, 3-(2′-amino-2-(3-methoxyphenyl)-1′-methyl-5′-oxo-1′,5′-dihydrospiro[chroman-4,4′-imidazole]-6-yl)benzonitrile] | 1000 to 5000 |  |
| CN1OC2(CC(c3ccccc3)Oc3cc(F)c(-c4cccnc4F)cc32)N=C1N (centres unmarked) [Compound 104, 7-fluoro-6-(2-fluoropyridin-3-yl)-2′-methyl-2-phenyl-2′H-spiro[chroman-4,5′-[1,2,4]oxadiazol]-3′-amine] | 5000 to 10000 |  |
| CC(C)=C[C@H](CCO)[C@@H]1C[C@@]2(N=C(N)N(C)O2)c2cc(-c3cccc(C(F)(F)F)c3)ccc2O1 [Compound 423] | 1000 to 5000 |  |

| SMILES | IC50 [1] [nM] | IC50 [nM] |
| --- | --- | --- |
| CC(C)=CC(CCO)[C@@H]1C[C@@]2(N=C(N)N(C)O2)c2cc(-c3cc(F)cc(F)c3F)ccc2O1 (some centres unmarked) [Compound 392] | 1000 to 5000 |  |
| CC(C)=CC(CCO)[C@@H]1C[C@@]2(N=C(N)N(C)O2)c2cc(-c3cccc(C(F)(F)F)c3)ccc2O1 (some centres unmarked) [Compound 450] | 10000 to 50000 |  |
| CN1OC2(CC(C3CCOC(C)(C)C3)Oc3ccc(-c4cccc(C#N)n4)cc32)N=C1N (centres unmarked) [Compound 406] | 1000 to 5000 |  |
| CC(C)=CC(CCO)[C@H]1C[C@@]2(N=C(N)N(C)O2)c2cc(-c3cc(F)cc(F)c3)ccc2O1 (some centres unmarked) [Compound 421] | 1000 to 5000 |  |
| CN1OC2(CC3(CCC(OCc4ccccc4)CC3)Oc3ccc(-c4cccc(C#N)c4)cc32)N=C1N (centres unmarked) [Compound 375] | 1000 to 5000 |  |
| CN1OC2(CC(c3ccccc3)Oc3ccc(-c4cccnc4)cc32)N=C1N (centres unmarked) [Compound 102, 2′-methyl-2-phenyl-6-(pyridin-3-yl)-2′H-spiro[chroman-4,5′-[1,2,4]oxadiazol]-3′-amine] | 1000 to 5000 |  |
| CN1OC2(CC3(CCCOCC3)Oc3ccc(-c4cccc(C#N)c4)cc32)N=C1N (centres unmarked) [Compound 116] | 1000 to 5000 |  |
| CN1C(=O)C2(CC(C3CCOC(C)(C)C3)Oc3ccc(-c4cccc(F)c4)cc32)N=C1N (centres unmarked) [Compound 452] | 10000 to 50000 |  |
| CN1C(=O)C2(CC(c3ccccc3)Oc3ccc(-c4ccc(F)c(C(=O)NCCO)c4)cc32)N=C1N (centres unmarked) [Compound 40, 5-(2′-amino-1′-methyl-5′-oxo-2-phenyl-1′,5′-dihydrospiro[chroman-4,4′-imidazole]-6-yl)-2-fluoro-N-(2-hydroxyethyl)benzamide] |  | 1000 to 5000 |
| CN1OC2(CC3(CCCOC3)Oc3ccc(Oc4ccccc4)cc32)N=C1N (centres unmarked) [Compound 130] | 10000 to 50000 |  |
| CN1C(=O)C2(CC(c3cccnc3)Oc3ccc(-c4cccc(C#N)c4)cc32)N=C1N (centres unmarked) [Compound 31] | 1000 to 5000 |  |
| CN1OC2(CC3(CCCOC3)Oc3ccc(C4CCCCC4)cc32)N=C1N (centres unmarked) [Compound 122] | 1000 to 5000 |  |
| CN1C(=O)C2(CC(c3ccccc3)Oc3ccc(-c4cc(C#N)ccc4Cl)cc32)N=C1N (centres unmarked) [Compound 21, 3-(2′-amino-1′-methyl-5′-oxo-2-phenyl-1′,5′-dihydrospiro[chroman-4,4′-imidazole]-6-yl)-4-chlorobenzonitrile] |  | 500 to 1000 |
| CN1C(=O)[C@@]2(C[C@@]3(CCCOC3)Oc3ccc(-c4cccc(C#N)n4)cc32)N=C1N [Compound 446] | 5000 to 10000 |  |
| CC(C)c1cccc(-c2ccc3c(c2)C2(CC(C4CCCOC4)O3)N=C(N)N(C)O2)c1 (centres unmarked) [Compound 101, 6-(3-isopropylphenyl)-2′-methyl-2-(tetrahydro-2H-pyran-3-yl)-2′H-spiro[chroman-4,5′-[1,2,4]oxadiazol]-3′-amine] | 1000 to 5000 |  |

The next lines start with results.

| IC50 [1] [nM] | SMILES | IC50 [nM] |
| --- | --- | --- |
| 1000 to 5000 | CN1OC2(CC(CO)(CO)Oc3ccc(-c4cccc(C#N)c4)cc32)N=C1N (centres unmarked) [Compound 100, 3-(2,2-bis(hydroxymethyl)-3′-imino-2′-methylspiro[chroman-4,5′-[1,2,4]oxadiazolidine]-6-yl)benzonitrile] |  |
| 100 to 500 | CN1C(=O)C2(C[C@]3(CCCOC3)Oc3ccc(-c4cccc(Br)c4)cc32)N=C1N (some centres unmarked) [Compound 318] |  |
| 500 to 1000 | CN1C(=O)C2(CC3(CCCOC3)Oc3ccc(-c4cccc(F)c4)cc32)N=C1N (centres unmarked) [Compound 347] |  |
| 1000 to 5000 | CN1C(=O)C2(CC3(CCCc4ccccc4C3)Oc3ccc(Br)cc32)N=C1N (centres unmarked) [Compound 381] |  |
| 100 to 500 | Cc1ccc(C#N)cc1-c1ccc2c(c1)C1(CC(C3CCOC(C)(C)C3)O2)N=C(N)N(C)O1 (centres unmarked) [Compound 292] |  |
| 500 to 1000 | CC1CC[C@]2(CO1)C[C@]1(N=C(N)N(C)O1)c1cc(-c3cc(Cl)cc(Cl)c3)ccc1O2 (some centres unmarked) [Compound 371] |  |
| 100 to 500 | CN1C(=O)[C@@]2(C[C@@]3(CCCOC3)Oc3ccc(-c4cccc(C#N)c4)cc32)N=C1N [Compound 72b] |  |
| 500 to 1000 | CN1C(=O)[C@@]2(C[C@@H](c3ccc(F)cc3)Oc3ccc(-c4cccc(C#N)c4)cc32)N=C1N [Compound 19a, 3-((2S,4S)-2′-amino-2-(4-fluorophenyl)-1′-methyl-5′-oxo-1′,5′-dihydrospiro[chroman-4,4′-imidazole]-6-yl)benzonitrile] |  |
| 100 to 500 | CN1C(=O)C2(CC(c3ccccc3F)Oc3ccc(-c4cccc(C#N)c4)cc32)N=C1N (centres unmarked) [Compound 9, 3-(2′-amino-2-(2-fluorophenyl)-1′-methyl-5′-oxo-1′,5′-dihydrospiro[chroman-4,4′-imidazole]-6-yl)benzonitrile] |  |
| 100 to 500 | CCC1CCC2(C1)CC1(N=C(N)N(C)C1=O)c1cc(-c3cccc(C#N)c3)ccc1O2 (centres unmarked) [Compound 73] |  |
| 500 to 1000 | CN1OC2(CC(C3CCOC(C)(C)C3)Oc3ccc(-c4csc(-n5ccnc5)n4)cc32)N=C1N (centres unmarked) [Compound 370] |  |
| 500 to 1000 | CC(=O)c1cccc(-c2ccc3c(c2)[C@]2(C[C@]4(CCCOC4)O3)N=C(N)N(C)C2=O)c1 [Compound 358] |  |
| 500 to 1000 | CN1OC2(C[C@H]([C@H]3CCOC(C)(C)C3)Oc3ccc(-c4ccc(F)c(F)c4)cc32)N=C1N (some centres unmarked) [Compound 365] |  |
| 100 to 500 | CN1C(=O)C2(CC(c3ccc(Cl)cc3)Oc3ccc(-c4cccc(C#N)c4)cc32)N=C1N (centres unmarked) [Compound 6] |  |
| 100 to 500 | CN1OC2(C[C@H]([C@H]3CCOC(C)(C)C3)Oc3ccc(-c4cc(F)ccc4F)cc32)N=C1N (some centres unmarked) [Compound 341] |  |
| 500 to 1000 | CN1O[C@]2(C[C@H](CC3CCCO3)Oc3ccc(-c4cccc(C#N)c4)cc32)N=C1N (stereo in doubt) [Compound 366, 3-(3′-amino-2′-methyl-2-((tetrahydrofuran-2-yl)methyl)-2′H-spiro[chroman-4,5′-[1,2,4]oxadiazole]-6-yl)benzonitrile] |  |
